One experiment addresses T1, human DP2 receptor (Homo sapiens, UniProt Q9Y5Y4).
T1 construct: expressed in transfected cells
T1 sequence (Q9Y5Y4 1-395): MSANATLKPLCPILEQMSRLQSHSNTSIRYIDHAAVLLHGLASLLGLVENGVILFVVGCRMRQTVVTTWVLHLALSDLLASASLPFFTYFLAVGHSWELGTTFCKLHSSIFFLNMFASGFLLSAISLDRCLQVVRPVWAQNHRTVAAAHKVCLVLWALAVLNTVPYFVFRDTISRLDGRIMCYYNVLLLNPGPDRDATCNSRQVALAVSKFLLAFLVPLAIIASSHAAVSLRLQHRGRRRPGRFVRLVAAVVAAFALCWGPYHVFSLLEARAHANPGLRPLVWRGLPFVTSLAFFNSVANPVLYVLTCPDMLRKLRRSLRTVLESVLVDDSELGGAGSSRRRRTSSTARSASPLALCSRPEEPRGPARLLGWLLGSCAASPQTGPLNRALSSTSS
The experiment is described as follows: DP2/CRTH2 radioligand binding assay using [3H]PGD2. The following applies: membranes of HEK293 cells expressing recombinant human DP2. The procedure:
The ability of a compound to bind to the human DP2 receptor is assessed via a radioligand binding assay using [^3H]PGD2. HEK293 cells stably expressing recombinant human DP2 are resuspended in 10 mM Hepes, 7.4 containing 1 mM DTT, lysed and centrifuged at 75,000×g to pellet the membranes. The membranes are resuspended in 10 mM Hepes, 7.4 containing 1 mM DTT and 10% glycerol to approximately 5 mg protein/ml. Membranes (2-10 μg protein/well) are incubated in 96-well plates with 1 nM [^3H]PGD2 and test compound in Assay Buffer (50 mM Hepes, 10 mM MnCl2, 1 mM EDTA, plus or minus 0.2% human serum albumin, pH 7.4) for 60 minutes at room temperature. The reactions are terminated by rapid filtration through Whatman GF/C glass fibre filter plates. The filter plates were pre-soaked in 0.33% polythylenimine for 30 minutes at room temperature then washed in Wash Buffer (50 mM Hepes, 0.5 M NaCl pH 7.4) prior to harvesting. After harvesting, the filter plates are washed 3 times with 1 ml cold Wash Buffer then dried. Scintillant is then added to the plates and the radioactivity retained on the filters is determined on a Packard TopCount (Perkin Elmer). Specific binding is determined as total radioactive binding minus non-specific binding in the presence of 10 μM PGD2. IC50s were determined using GraphPad prism analysis of drug titration curves.

In a further experiment the target is T2, human DP1 receptor (Homo sapiens, UniProt Q13258).
T2 construct: tissue Biological Specialty Corporation; host or cells: human platelets, membrane preparation
T2 sequence (Q13258 1-359): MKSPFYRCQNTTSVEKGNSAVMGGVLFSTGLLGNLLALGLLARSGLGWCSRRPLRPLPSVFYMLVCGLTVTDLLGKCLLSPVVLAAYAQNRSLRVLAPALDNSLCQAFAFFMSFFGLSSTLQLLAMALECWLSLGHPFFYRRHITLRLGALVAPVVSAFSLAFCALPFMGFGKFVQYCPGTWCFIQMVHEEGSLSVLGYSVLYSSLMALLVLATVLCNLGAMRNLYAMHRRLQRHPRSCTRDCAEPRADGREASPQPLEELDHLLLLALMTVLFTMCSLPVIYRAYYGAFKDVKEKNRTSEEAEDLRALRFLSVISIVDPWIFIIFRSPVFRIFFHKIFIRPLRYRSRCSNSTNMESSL
The experiment is described as follows: DP1 radioligand membrane binding assay using [3H]BWA868C. The following applies: human platelet membranes; read-out: hDP1. The procedure: The ability of a compound to bind to the human DP1 receptor is evaluated via a radioligand membrane binding assay using the DP1 selective synthetic ligand [^3H]BWA868C. Packed human platelets (Biological Specialty Corporation), are resuspended in 6 volumes of Hepes/HBSS buffer (10 mM Hepes, 1 mM DTT in Hanks Balanced Salt Solution (HBSS)), lysed and centrifuged at 75,000×g to pellet the membranes. Membranes are resuspended in Hepes/HBSS buffer to approximately 12 mg protein/ml. Membranes (20 μg protein/well) are incubated in 96-well plates with 2 nM [^3H]BWA868C and test compound in Assay Buffer (50 mM Hepes, 10 mM MnCl2, 1 mM EDTA, plus or minus 0.2% human serum albumin, pH 7.4) for 60 minutes at room temperature. The reactions are terminated by rapid filtration through Whatman GF/C glass fibre filter plates. The filter plates are pre-soaked in 0.33% polethylenimine for 30 minutes at room temperature then washed in Wash Buffer (50 mM Hepes, 0.5 M NaCl pH 7.4) prior to harvesting. […] Scintillant is then added to the plates and the radioactivity retained on the filters is determined on a Packard TopCount (Perkin Elmer). Specific binding is determined as total radioactive binding minus non-specific binding in the presence of 10 μM BW A868C. IC50 values are determined using GraphPad prism analysis of drug titration curves.

The mark [1] stands for this setting: plus 0.2% human serum albumin, read-out: hDP2 μM (+HSA).
The mark [2] stands for this setting: without human serum albumin, read-out: hDP2.

The structures appear in SMILES notation. Where two headings read alike, the source gives them in different places. Some results are limits rather than exact numbers.

For `CN(C1CCc2c(CC(=O)O)c3ccccn3c2C1)S(=O)(=O)c1ccc(F)cc1` (stereo not drawn) [Compound 1-1, {3-[(4-Fluoro-benzenesulfonyl)-methyl-amino]-1,2,3,4-tetrahydro-pyrido[1,2-a]indol-10-yl}-acetic acid], the IC50 was under 300 nM on human DP2 receptor (setting [1]), under 300 nM on human DP2 receptor (setting [2]) and over 1000 nM on human DP1 receptor.

For `CN(C1CCc2c(c3ccccn3c2CC(=O)O)C1)S(=O)(=O)c1ccc(F)cc1` (stereo not drawn) [Compound 2-1, {9-[(4-Fluoro-benzenesulfonyl)-methyl-amino]-7,8,9,10-tetrahydro-pyrido[2,1-a]isoindol-6-yl}-acetic acid], the IC50 on human DP2 receptor (setting [1]) was under 300 nM; at human DP2 receptor (setting [2]), under 300 nM; at human DP1 receptor, over 1000 nM.

(Values after patent publication US20120004233A1, “TRICYCLIC COMPOUNDS AS ANTAGONISTS OF PROSTAGLANDIN D2 RECEPTORS” (AMIRA PHARMACEUTICALS, INC, priority 2009, published 2012).)
